Values joined by “and” are separate entries in the source; they are usually repeats but may differ in a detail not shown here. Equal entries are not always repeated. Inconclusive results and toxic doses are left out. Rule for the calls: active = survival T/C of 150% or more; inactive = T/C below 125% in these data.
Tested on: P388 leukemia ip, CD2F1 mice, survival T/C
Test: NCI In Vivo Anticancer Drug Screen. Data for tumor model P388 Leukemia (intraperitoneal) in CD2F1 (CDF1) mice
Conditions: endpoint: median survival time, higher = longer survival
Procedure, shortened: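 Mice carrying the transplanted tumor received test compound or vehicle. Survival was recorded in each group, and the value is the treated-group measurement divided by that of the vehicle-treated control group.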

[1] = dose: 50.0 mg/kg/injection, schedule: Q01DX005 (ip), vehicle: saline with Tween-80
[2] = dose: 100.0 mg/kg/injection, schedule: Q01DX005 (ip), vehicle: saline with Tween-80
[3] = dose: 50.0 mg/kg/injection, schedule: Q01DX009 (ip), vehicle: Klucel (hydroxypropylcellulose) (HPC)
[4] = dose: 100.0 mg/kg/injection, schedule: Q01DX009 (ip), vehicle: Klucel (hydroxypropylcellulose) (HPC)
[5] = dose: 25.0 mg/kg/injection, schedule: Q01DX009 (ip), vehicle: Klucel (hydroxypropylcellulose) (HPC)
[6] = dose: 100.0 mg/kg/injection, schedule: Q01DX001 (ip), vehicle: saline with Tween-80
[7] = dose: 200.0 mg/kg/injection, schedule: Q01DX001 (ip), vehicle: saline with Tween-80
[8] = dose: 400.0 mg/kg/injection, schedule: Q01DX001 (ip), vehicle: saline with Tween-80
[9] = dose: 100.0 mg/kg/injection, schedule: Q01DX009 (ip), vehicle: saline with Tween-80
[10] = dose: 200.0 mg/kg/injection, schedule: Q01DX009 (ip), vehicle: saline with Tween-80

Measured: T/C

CNC(=O)O[C@H]1CC[C@@]2(C)C(=CC[C@H]3[C@@H]4CC[C@H]([C@H](C)CCCC(C)C)[C@@]4(C)CC[C@@H]32)C1
inactive: [1] 100 % of control | [2] 96 % of control | dose: 200.0 mg/kg/injection, schedule: Q01DX005 (ip), vehicle: saline with Tween-80 100 % of control

Cc1ccc(C)c(NC(=O)Nc2ccccc2C(N)=O)c1
inactive: [3] 91 % of control | [4] 113 % of control | dose: 200.0 mg/kg/injection, schedule: Q01DX009 (ip), vehicle: Klucel (hydroxypropylcellulose) (HPC) 104 % of control

S=C(Nc1ccc(Br)c(Cl)c1)SCc1ccc2c(c1)OCO2
inactive: [5] 121 % of control | [3] 107 % of control | dose: 50.0 mg/kg/injection, schedule: Q01DX009 (ip), vehicle: suspension in saline 105 % of control | [4] 123 % of control | dose: 100.0 mg/kg/injection, schedule: Q01DX009 (ip), vehicle: suspension in saline 104 % of control | dose: 200.0 mg/kg/injection, schedule: Q01DX009 (ip), vehicle: suspension in saline 116 % of control

O=C(O)CCCCCCCCCO
inactive: dose: 25.0 mg/kg/injection, schedule: Q01DX009 (ip), vehicle: saline 109 % of control | dose: 50.0 mg/kg/injection, schedule: Q01DX009 (ip), vehicle: saline 115 % of control | dose: 100.0 mg/kg/injection, schedule: Q01DX009 (ip), vehicle: saline 100 % of control | dose: 200.0 mg/kg/injection, schedule: Q01DX009 (ip), vehicle: saline 100 % of control

O=C1CSC(c2c(F)cccc2Cl)N1c1nncs1 (stereo not given)
inactive: dose: 60.0 mg/kg/injection, schedule: Q01DX005 (ip), vehicle: Klucel (hydroxypropylcellulose) (HPC) 102 % of control and 104 % of control | dose: 120.0 mg/kg/injection, schedule: Q01DX005 (ip), vehicle: Klucel (hydroxypropylcellulose) (HPC) 105 % of control

Nc1nc(=S)c2[nH]c(=S)n(C3OC(CO)C(O)C3O)c2[nH]1 (stereo not given)
inactive: dose: 25.0 mg/kg/injection, schedule: Q01DX005 (ip), vehicle: Klucel (hydroxypropylcellulose) (HPC) 100 % of control | dose: 50.0 mg/kg/injection, schedule: Q01DX005 (ip), vehicle: Klucel (hydroxypropylcellulose) (HPC) 105 % of control | dose: 100.0 mg/kg/injection, schedule: Q01DX005 (ip), vehicle: Klucel (hydroxypropylcellulose) (HPC) 103 % of control | dose: 200.0 mg/kg/injection, schedule: Q01DX005 (ip), vehicle: Klucel (hydroxypropylcellulose) (HPC) 112 % of control

O=Cc1cccc(OC(=O)Oc2cccc(C=O)c2)c1
inactive: [6] 101 % of control | [7] 99 % of control | [8] 104 % of control

COC(=O)Nc1cnc(C)c(C)c1-c1ccc(OC)c(OC)c1OCc1ccccc1
inactive: dose: 0.05 mg/kg/injection, schedule: Q01DX009 (ip), vehicle: water 96 % of control | dose: 0.1 mg/kg/injection, schedule: Q01DX009 (ip), vehicle: water 111 % of control | dose: 0.2 mg/kg/injection, schedule: Q01DX009 (ip), vehicle: water 110 % of control | dose: 0.4 mg/kg/injection, schedule: Q01DX009 (ip), vehicle: water 104 % of control and 105 % of control | dose: 0.8 mg/kg/injection, schedule: Q01DX009 (ip), vehicle: water 106 % of control | dose: 1.6 mg/kg/injection, schedule: Q01DX009 (ip), vehicle: water 109 % of control | dose: 3.2 mg/kg/injection, schedule: Q01DX009 (ip), vehicle: water 103 % of control | dose: 6.25 mg/kg/injection, schedule: Q01DX009 (ip), vehicle: other 103 % of control | dose: 6.4 mg/kg/injection, schedule: Q01DX009 (ip), vehicle: water 104 % of control | dose: 12.5 mg/kg/injection, schedule: Q01DX009 (ip), vehicle: other 103 % of control | dose: 25.0 mg/kg/injection, schedule: Q01DX009 (ip), vehicle: other 104 % of control | dose: 50.0 mg/kg/injection, schedule: Q01DX009 (ip), vehicle: other 98 % of control | dose: 100.0 mg/kg/injection, schedule: Q01DX009 (ip), vehicle: other 108 % of control | dose: 200.0 mg/kg/injection, schedule: Q01DX009 (ip), vehicle: other 99 % of control | dose: 400.0 mg/kg/injection, schedule: Q01DX009 (ip), vehicle: other 99 % of control

O=[N+]([O-])c1ccc(C2=C[P+](c3ccccc3)(c3ccccc3)C=C(c3ccccc3)O2)cc1
inactive: dose: 1.5 mg/kg/injection, schedule: Q01DX005 (ip), vehicle: saline with Tween-80 115 % of control | dose: 1.5 mg/kg/injection, schedule: Q01DX005 (ip), vehicle: saline 117 % of control | dose: 3.0 mg/kg/injection, schedule: Q01DX005 (ip), vehicle: saline with Tween-80 113 % of control | dose: 3.0 mg/kg/injection, schedule: Q01DX005 (ip), vehicle: saline 124 % of control

Clc1cc[c]([Sb]2([c]3ccc(Cl)cc3)([c]3ccc(Cl)cc3)[O]C(C(Cl)(Cl)Cl)[O]2)cc1 (stereo not given)
inactive: dose: 12.5 mg/kg/injection, schedule: Q01DX009 (ip), vehicle: Klucel (hydroxypropylcellulose) (HPC) 99 % of control | [5] 104 % of control | [3] 100 % of control and 95 % of control

CCCCCCCCC[N+]1(CC)CCCCC1
inactive: dose: 3.12 mg/kg/injection, schedule: Q01DX009 (ip), vehicle: saline 121 % of control | dose: 6.25 mg/kg/injection, schedule: Q01DX009 (ip), vehicle: saline 121 % of control | dose: 12.5 mg/kg/injection, schedule: Q01DX009 (ip), vehicle: saline 86 % of control

O=C(Nc1ccc2c(c1)Cc1cccc(NC(=O)C(Cl)Cl)c1-2)C(Cl)Cl
inactive: [9] 90 % of control | dose: 100.0 mg/kg/injection, schedule: Q04DX003 (ip), vehicle: saline with Tween-80 91 % of control | [10] 95 % of control | dose: 200.0 mg/kg/injection, schedule: Q04DX003 (ip), vehicle: saline with Tween-80 91 % of control | dose: 400.0 mg/kg/injection, schedule: Q01DX009 (ip), vehicle: saline with Tween-80 100 % of control | dose: 400.0 mg/kg/injection, schedule: Q04DX003 (ip), vehicle: saline with Tween-80 87 % of control

Clc1ccc2nc(C(Cl)(Cl)Cl)nc(NCCN3CCCCC3)c2c1
inactive: dose: 50.0 mg/kg/injection, schedule: Q01DX009 (ip), vehicle: saline with Tween-80 100 % of control | [9] 100 % of control | [10] 90 % of control

COc1c2occc2c(N=Cc2ccncc2)c2ccc(=O)oc12
inactive: [6] 88 % of control | [7] 90 % of control | [8] 96 % of control

O=C(O)c1c(Cl)c(Cl)c(Cl)c(Cl)c1-c1c2cc(Br)c(=O)c(Br)c-2oc2c(Br)c(O)c(Br)cc12
inactive: [1] 89 % of control | [2] 90 % of control

C=C1C(=O)O[C@H]2C3OC3(C)CC/C=C(/C(=O)OC)[C@@H](OC(C)=O)[C@H](OC(=O)C3(C)OC3C)[C@H]12 (stereo not given in full)
inactive: dose: 1.87 mg/kg/injection, schedule: Q01DX009 (ip), vehicle: Klucel (hydroxypropylcellulose) (HPC) 112 % of control | dose: 3.75 mg/kg/injection, schedule: Q01DX009 (ip), vehicle: Klucel (hydroxypropylcellulose) (HPC) 108 % of control | dose: 7.5 mg/kg/injection, schedule: Q01DX009 (ip), vehicle: Klucel (hydroxypropylcellulose) (HPC) 107 % of control

O=S(=O)(Nc1ncccn1)c1ccc(NCc2c3ccccc3nc3cc(Cl)ccc23)cc1
inactive: dose: 60.0 mg/kg/injection, schedule: Q01DX005 (ip), vehicle: saline with Tween-80 87 % of control | dose: 120.0 mg/kg/injection, schedule: Q01DX005 (ip), vehicle: saline with Tween-80 86 % of control | dose: 240.0 mg/kg/injection, schedule: Q01DX005 (ip), vehicle: saline with Tween-80 91 % of control
